Test results reported in PubChem BioAssay AID330 (DTP/NCI, 2004).
Several values for one entry are separate records, joined by “and”; a condition that tells them apart may be missing. Equal entries are not always repeated. Inconclusive results and toxic doses are left out. Rule for the calls: active = survival T/C of 150% or more; inactive = T/C below 125% in these data.

System: P388 leukemia ip, CD2F1 mice, survival T/C
Experiment: NCI In Vivo Anticancer Drug Screen. Data for tumor model P388 Leukemia (intraperitoneal) in CD2F1 (CDF1) mice
Details: endpoint: median survival time, higher = longer survival
How it was run: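 Mice carrying the transplanted tumor received test compound or vehicle. Survival was recorded in each group, and the value is the treated-group measurement divided by that of the vehicle-treated control group.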

[1] = dose: 50.0 mg/kg/injection, schedule: Q01DX005 (ip), vehicle: Klucel (hydroxypropylcellulose) (HPC)
[2] = dose: 100.0 mg/kg/injection, schedule: Q01DX005 (ip), vehicle: Klucel (hydroxypropylcellulose) (HPC)
[3] = dose: 200.0 mg/kg/injection, schedule: Q01DX005 (ip), vehicle: Klucel (hydroxypropylcellulose) (HPC)
[4] = dose: 60.0 mg/kg/injection, schedule: Q01DX005 (ip), vehicle: Klucel (hydroxypropylcellulose) (HPC)
[5] = dose: 25.0 mg/kg/injection, schedule: Q01DX009 (ip), vehicle: saline with Tween-80
[6] = dose: 50.0 mg/kg/injection, schedule: Q01DX009 (ip), vehicle: saline with Tween-80
[7] = dose: 100.0 mg/kg/injection, schedule: Q04DX003 (ip), vehicle: saline with Tween-80
[8] = dose: 200.0 mg/kg/injection, schedule: Q04DX003 (ip), vehicle: saline with Tween-80
[9] = dose: 400.0 mg/kg/injection, schedule: Q04DX003 (ip), vehicle: saline with Tween-80
[10] = dose: 50.0 mg/kg/injection, schedule: Q01DX005 (ip), vehicle: saline with Tween-80
[11] = dose: 100.0 mg/kg/injection, schedule: Q01DX005 (ip), vehicle: saline with Tween-80
[12] = dose: 6.25 mg/kg/injection, schedule: Q01DX001 (ip), vehicle: saline
[13] = dose: 12.5 mg/kg/injection, schedule: Q01DX001 (ip), vehicle: saline
[14] = dose: 25.0 mg/kg/injection, schedule: Q01DX001 (ip), vehicle: saline
[15] = dose: 200.0 mg/kg/injection, schedule: Q01DX005 (ip), vehicle: saline with Tween-80
[16] = dose: 120.0 mg/kg/injection, schedule: Q01DX005 (ip), vehicle: Klucel (hydroxypropylcellulose) (HPC)
[17] = dose: 240.0 mg/kg/injection, schedule: Q01DX005 (ip), vehicle: Klucel (hydroxypropylcellulose) (HPC)

Measured: T/C

O=C1NC(=O)[C@@]2(CCOc3ccc(F)cc32)N1
inactive: [1] 95 % of control | [2] 100 % of control | [3] 100 % of control

Cc1nc2c(Cl)cccc2c2ccccc12
inactive: [1] 88 % of control | [2] 92 % of control | [3] 88 % of control

O=C(NCCNC(=O)C12CC3CC(CC(C3)C1)C2)C12CC3CC(CC(C3)C1)C2
inactive: dose: 6.0 mg/kg/injection, schedule: Q01DX005 (ip), vehicle: Klucel (hydroxypropylcellulose) (HPC) 88 % of control | dose: 12.0 mg/kg/injection, schedule: Q01DX005 (ip), vehicle: Klucel (hydroxypropylcellulose) (HPC) 88 % of control | dose: 100.0 mg/kg/injection, schedule: Q01DX001 (ip), vehicle: saline with Tween-80 94 % of control | dose: 200.0 mg/kg/injection, schedule: Q01DX001 (ip), vehicle: saline with Tween-80 95 % of control | dose: 400.0 mg/kg/injection, schedule: Q01DX001 (ip), vehicle: saline with Tween-80 86 % of control

COc1ccc(/C(=N\O)c2nccc3cc(OC)c(OC)cc23)cc1OC
inactive: dose: 15.0 mg/kg/injection, schedule: Q01DX005 (ip), vehicle: saline with Tween-80 116 % of control | dose: 30.0 mg/kg/injection, schedule: Q01DX005 (ip), vehicle: saline with Tween-80 105 % of control | dose: 60.0 mg/kg/injection, schedule: Q01DX005 (ip), vehicle: saline with Tween-80 99 % of control and 92 % of control

C=C(C)[C@@H]1CC[C@]2(C(=O)O)CC[C@@]3(C)[C@]4(C)CC[C@@H]5[C@](C)(CC[C@@H](O)[C@@]5(C)C(=O)O)[C@H]4CC[C@]3(C)[C@@H]12
inactive: dose: 15.0 mg/kg/injection, schedule: Q01DX005 (ip), vehicle: Klucel (hydroxypropylcellulose) (HPC) 104 % of control | dose: 30.0 mg/kg/injection, schedule: Q01DX005 (ip), vehicle: Klucel (hydroxypropylcellulose) (HPC) 117 % of control | [4] 117 % of control

O=C1CN(/N=C\c2ccc([N+](=O)[O-])o2)C(=O)N1
inactive: [5] 100 % of control | dose: 25.0 mg/kg/injection, schedule: Q04DX003 (ip), vehicle: saline with Tween-80 110 % of control | [6] 100 % of control | dose: 50.0 mg/kg/injection, schedule: Q04DX003 (ip), vehicle: saline with Tween-80 110 % of control | dose: 100.0 mg/kg/injection, schedule: Q01DX009 (ip), vehicle: saline with Tween-80 109 % of control | [7] 105 % of control

Cc1cc(Cl)c2ccccc2c1N
inactive: [7] 100 % of control | dose: 200.0 mg/kg/injection, schedule: Q01DX009 (ip), vehicle: other 105 % of control | [8] 95 % of control | dose: 400.0 mg/kg/injection, schedule: Q01DX009 (ip), vehicle: other 90 % of control | [9] 100 % of control

CC1CC[N-]CC1.CC1CC[N-]CC1.CC1CC[N-]CC1.CC1CC[N-]CC1.[Cl][Rh][Cl]
inactive: [5] 104 % of control | [6] 104 % of control

O=C(NC(C(=O)O)c1ccc(CCl)cc1)c1ccccc1 (configuration not stated)
inactive: [10] 107 % of control | [11] 105 % of control

CC1=NN(C(=O)c2cccnc2)C(=O)C1N=Nc1ccc(S(=O)(=O)N=C(N)N)cc1 (configuration not stated)
inactive: [7] 91 % of control | [8] 92 % of control | [9] 88 % of control

CCS/C(=C/[P+](c1ccccc1)(c1ccccc1)c1ccccc1)SC
inactive: dose: 6.25 mg/kg/injection, schedule: Q01DX005 (ip), vehicle: saline with Tween-80 101 % of control

CCOC(=O)CC1(O)CSc2nc(N)cc(=O)n21 (configuration not stated)
inactive: [1] 94 % of control | [2] 99 % of control | [3] 91 % of control

NC(N)=NN=c1/c(=N\N=C(N)N)c2cc3ccccc3cc2/c1=N/N=C(N)N
inactive: [12] 102 % of control | [13] 96 % of control | [14] 96 % of control and 97 % of control

COc1ccc(-c2nc3c(=O)[nH]c(=O)n(C)c3nc2-c2ccc(OC)c(OC)c2)cc1OC
inactive: dose: 100.0 mg/kg/injection, schedule: Q04DX002 (ip), vehicle: Klucel (hydroxypropylcellulose) (HPC) 97 % of control | dose: 200.0 mg/kg/injection, schedule: Q04DX002 (ip), vehicle: Klucel (hydroxypropylcellulose) (HPC) 100 % of control | dose: 400.0 mg/kg/injection, schedule: Q04DX002 (ip), vehicle: Klucel (hydroxypropylcellulose) (HPC) 100 % of control

Cc1c2c[n+]([O-])ccc2c(C)c2c1c1ccccc1n2C
inactive: dose: 12.5 mg/kg/injection, schedule: Q04DX002 (ip), vehicle: saline with Tween-80 101 % of control | dose: 25.0 mg/kg/injection, schedule: Q04DX002 (ip), vehicle: saline with Tween-80 101 % of control | dose: 50.0 mg/kg/injection, schedule: Q04DX002 (ip), vehicle: saline with Tween-80 103 % of control | dose: 100.0 mg/kg/injection, schedule: Q04DX002 (ip), vehicle: saline with Tween-80 107 % of control | dose: 200.0 mg/kg/injection, schedule: Q04DX002 (ip), vehicle: saline with Tween-80 113 % of control

CCOc1ccc(/C=N/NC(=O)c2c(-c3ccccc3)noc2C)cc1
inactive: [10] 86 % of control | [11] 91 % of control | [15] 97 % of control

CC1C=CC(C)S(=O)N1C(=O)Cc1ccccc1 (configuration not stated)
inactive: [4] 100 % of control | [16] 106 % of control | [17] 113 % of control

C=CC1(O)Cc2cc(C(C)C)c(OC)c(OC)c21 (configuration not stated)
inactive: [10] 106 % of control | [11] 119 % of control | [15] 109 % of control

NC1=C(O)C(=O)C(c2ccc(C3OC(N)=C(O)C3=O)cc2)O1 (configuration not stated)
inactive: [4] 101 % of control | [16] 104 % of control | [17] 96 % of control

CCCCN(C)c1ncnc2[nH]ncc12
inactive: dose: 100.0 mg/kg/injection, schedule: Q04DX003 (ip), vehicle: saline 100 % of control

COc1cccc(CN2CCNCC2)c1
inactive: dose: 6.25 mg/kg/injection, schedule: Q01DX009 (ip), vehicle: water 90 % of control | dose: 12.5 mg/kg/injection, schedule: Q01DX009 (ip), vehicle: water 94 % of control | dose: 25.0 mg/kg/injection, schedule: Q01DX009 (ip), vehicle: water 93 % of control | dose: 50.0 mg/kg/injection, schedule: Q01DX009 (ip), vehicle: water 94 % of control

CC(=O)Nc1ccc(C(=O)O)c(O)c1.CC(=O)Nc1ccc(C(=O)O)c(O)c1.[Cu]
inactive: [12] 98 % of control | [13] 97 % of control | [14] 94 % of control

CSC1=NN(C(C)=O)C(c2ccncc2)S1 (configuration not stated)
inactive: [1] 96 % of control | [2] 97 % of control | [3] 92 % of control

ClC12CCC(c3ccccc3)(CC1)CC2
inactive: dose: 50.0 mg/kg/injection, schedule: Q01DX009 (ip), vehicle: Klucel (hydroxypropylcellulose) (HPC) 105 % of control | dose: 100.0 mg/kg/injection, schedule: Q01DX009 (ip), vehicle: Klucel (hydroxypropylcellulose) (HPC) 108 % of control | dose: 200.0 mg/kg/injection, schedule: Q01DX009 (ip), vehicle: Klucel (hydroxypropylcellulose) (HPC) 99 % of control

CCN(CC)Cc1cc(Nc2c3ccc([N+](=O)[O-])cc3nc3ccc(OC)cc23)ccc1O
inactive: dose: 50.0 mg/kg/injection, schedule: Q01DX005 (ip), vehicle: saline 99 % of control | dose: 100.0 mg/kg/injection, schedule: Q01DX005 (ip), vehicle: saline 103 % of control | dose: 200.0 mg/kg/injection, schedule: Q01DX005 (ip), vehicle: saline 101 % of control

O=C(C1=Cc2ccccc2OC1)N1CCN(c2cccc(Cl)c2)CC1
inactive: [7] 98 % of control | [8] 102 % of control | [9] 93 % of control
